Measured values from PubChem BioAssay (NCI).
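Assay format: 96-well plates, 48-hour exposure. GI50 = concentration required for 50% inhibition of growth. TGI: total growth inhibition.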

Key:
Assay in all cases: NCI anticancer screen, dose series, 48 h
[1] = tested on: HOP-92 NSCLC
[2] = tested on: RXF 393 renal
[3] = tested on: SR leukemia
[4] = tested on: HCC-2998 colon
[5] = tested on: SK-MEL-5 melanoma
[6] = tested on: HL-60(TB) leukemia
[7] = tested on: MDA-MB-231 breast
[8] = tested on: CAKI-1 renal
[9] = tested on: COLO 205 colon
[10] = tested on: SNB-75 CNS
[11] = tested on: SK-MEL-28 melanoma
[12] = tested on: HCT-15 colon
[13] = tested on: SF-268 CNS
[14] = tested on: SK-MEL-2 melanoma
[15] = tested on: IGROV1 ovarian
[16] = tested on: T-47D breast
[17] = tested on: A498 renal
[18] = tested on: MDA-MB-435
[19] = tested on: CCRF-CEM leukemia
[20] = tested on: UO-31 renal
[21] = tested on: SK-OV-3 ovarian
[22] = tested on: OVCAR-3 ovarian
[23] = tested on: U251 CNS
[24] = tested on: BT-549 breast
[25] = tested on: ACHN renal
[26] = tested on: DU-145 prostate
[27] = tested on: SNB-19 CNS
[28] = tested on: M14 melanoma
[29] = tested on: OVCAR-5 ovarian
[30] = tested on: OVCAR-8 ovarian
[31] = tested on: NCI-H522 lung
[32] = tested on: LOX IMVI melanoma
[33] = tested on: SW-620 colon
[34] = tested on: NCI-H226 lung
[35] = tested on: HOP-62 NSCLC
[36] = tested on: OVCAR-4 ovarian
[37] = tested on: UACC-257 melanoma
[38] = tested on: UACC-62 melanoma
[39] = tested on: SF-295 CNS
[40] = tested on: KM12 colon
[41] = tested on: HT29 colon
[42] = tested on: NCI-H460 lung
[43] = tested on: A549 NSCLC
[44] = tested on: NCI-H23 lung
[45] = tested on: MALME-3M melanoma
[46] = tested on: EKVX NSCLC
[47] = tested on: K-562 leukemia
[48] = tested on: TK-10 renal
[49] = tested on: HS 578T breast
[50] = tested on: NCI/ADR-RES ovarian
[51] = tested on: MCF7 breast
[52] = tested on: PC-3 prostate
[53] = tested on: RPMI-8226 leukemia
[54] = tested on: SF-539 CNS
[55] = tested on: HCT-116 colon
[56] = tested on: 786-0 renal
[57] = tested on: SN12C renal
[58] = tested on: MOLT-4 leukemia

NC(CCCCO)C(=O)O (configuration not stated)
TGI [1]: > 100 µM
TGI [2]: > 100 µM
TGI [3]: > 100 µM
TGI [4]: > 100 µM
TGI [5]: > 100 µM
TGI [6]: > 100 µM
TGI [7]: > 100 µM
TGI [8]: > 100 µM
TGI [9]: > 100 µM
TGI [10]: > 100 µM
TGI [11]: > 100 µM
TGI [12]: > 100 µM
TGI [13]: > 100 µM
TGI [14]: > 100 µM
TGI [15]: > 100 µM
TGI [16]: > 100 µM
TGI [17]: > 100 µM
TGI [18]: > 100 µM
TGI [19]: > 100 µM
TGI [20]: > 100 µM
TGI [21]: > 100 µM
TGI [22]: > 100 µM
TGI [23]: > 100 µM
TGI [24]: > 100 µM
TGI [25]: > 100 µM
TGI [26]: > 100 µM
TGI [27]: > 100 µM
TGI [28]: > 100 µM
TGI [29]: > 100 µM
TGI [30]: > 100 µM
TGI [31]: > 100 µM
TGI [32]: > 100 µM
TGI [33]: > 100 µM
TGI [34]: > 100 µM
TGI [35]: > 100 µM
TGI [36]: > 100 µM
TGI [37]: > 100 µM
TGI [38]: > 100 µM
TGI [39]: > 100 µM
TGI [40]: > 100 µM
TGI [41]: > 100 µM
TGI [42]: > 100 µM
TGI [43]: > 100 µM
TGI [44]: > 100 µM
TGI [45]: > 100 µM
TGI [46]: > 100 µM
TGI [47]: > 100 µM
TGI [48]: > 100 µM
TGI [49]: > 100 µM
TGI [50]: > 100 µM
TGI [51]: > 100 µM
TGI [52]: > 100 µM
TGI [53]: > 100 µM

CCN(Cc1cc(F)cc(F)c1)c1ccc(CO)c(Cl)c1
GI50 [1]: 0.195 µM
TGI [1]: 9.25 µM
GI50 [2]: 2.54 µM
TGI [2]: 17.5 µM
GI50 [3]: 17.2 µM
TGI [3]: 43.6 µM
GI50 [4]: 7.68 µM
TGI [4]: 23.6 µM
GI50 [54]: 15.1 µM
TGI [54]: 29.5 µM
GI50 [5]: 11.8 µM
TGI [5]: 24.2 µM
GI50 [6]: 7.25 µM
TGI [6]: 32.7 µM
GI50 [7]: 13 µM
TGI [7]: 26.7 µM
GI50 [8]: 0.456 µM
TGI [8]: 2.64 µM
GI50 [9]: 3 µM
TGI [9]: 10.5 µM
GI50 [10]: 8.49 µM
TGI [10]: 27.3 µM
GI50 [11]: 13.7 µM
TGI [11]: 26.8 µM
GI50 [12]: 12.4 µM
TGI [12]: 29.9 µM
GI50 [13]: 15.5 µM
TGI [13]: 31.3 µM
GI50 [14]: 4.43 µM
TGI [14]: 20.2 µM
GI50 [15]: 0.0726 µM
TGI [15]: 0.38 µM
GI50 [16]: 0.118 µM
TGI [16]: 0.782 µM
GI50 [17]: 0.0343 µM
TGI [17]: 0.167 µM
GI50 [18]: 14.4 µM
TGI [18]: 30 µM
GI50 [19]: 18.5 µM
TGI [19]: 66.5 µM
GI50 [20]: 3.24 µM
TGI [20]: 21.4 µM
GI50 [55]: 0.0723 µM
TGI [55]: 8.31 µM
GI50 [21]: 10.5 µM
TGI [21]: 25.7 µM
GI50 [56]: 12.5 µM
TGI [56]: 27.2 µM
GI50 [22]: 0.342 µM
TGI [22]: 2.31 µM
GI50 [23]: 0.992 µM
TGI [23]: 16.4 µM
GI50 [57]: 12.1 µM
TGI [57]: 25.2 µM
GI50 [24]: 14.4 µM
TGI [24]: 29.1 µM
GI50 [25]: 13.3 µM
TGI [25]: 27 µM
GI50 [26]: 15.4 µM
TGI [26]: 34.2 µM
GI50 [27]: 14.9 µM
TGI [27]: 41.2 µM
GI50 [28]: 15.3 µM
TGI [28]: 32.4 µM
GI50 [29]: 0.0668 µM
TGI [29]: 0.287 µM
GI50 [30]: 13.4 µM
TGI [30]: 34.7 µM
GI50 [31]: 13.5 µM
TGI [31]: 29.4 µM
GI50 [32]: 14.4 µM
TGI [32]: 28.2 µM
GI50 [33]: 0.652 µM
TGI [33]: 18.6 µM
GI50 [34]: 0.0801 µM
TGI [34]: 0.214 µM
GI50 [35]: 2.67 µM
TGI [35]: 20.2 µM
GI50 [36]: 0.168 µM
TGI [36]: 2.73 µM
GI50 [37]: 0.0986 µM
TGI [37]: 0.429 µM
GI50 [38]: 0.115 µM
TGI [38]: 0.909 µM
GI50 [39]: 0.379 µM
TGI [39]: 14.3 µM
GI50 [40]: 13 µM
TGI [40]: 26.6 µM
GI50 [41]: 3.74 µM
TGI [41]: 17.1 µM
GI50 [42]: 0.205 µM
TGI [42]: 12.5 µM
GI50 [43]: 2.36 µM
TGI [43]: 21.5 µM
GI50 [44]: 12.3 µM
TGI [44]: 33.5 µM
GI50 [45]: 15 µM
TGI [45]: 30.4 µM
GI50 [47]: 1.04 µM
TGI [47]: 23 µM
GI50 [58]: 18.3 µM
TGI [58]: 51 µM
GI50 [48]: 0.0425 µM
TGI [48]: 0.236 µM
GI50 [49]: 16.4 µM
TGI [49]: 44.7 µM
GI50 [50]: 14.8 µM
TGI [50]: 38.4 µM
GI50 [51]: 0.208 µM
TGI [51]: 12.8 µM
GI50 [52]: 12.5 µM
TGI [52]: 27.1 µM
GI50 [53]: 2.48 µM
TGI [53]: 26.1 µM
